Results as given in patent publication US20120101083A1, “S1P1 AGONISTS COMPRISING A BICYCLIC N-CONTAINING RING” (GLAXO GROUP LIMITED, priority 2009, published 2012).

Assays:
[1] = biological target: T1, human Endothelial Differentiation G-protein Coupled Receptor 3 (EDG3) (Homo sapiens, UniProt Q99500); test: S1P3 GeneBlazer assay; type: cell-based; conditions: EDG3-Ga15-NFAT-bla HEK 293T cells
T1 construct: expressed in transfected cells; host or cells: GeneBLAzer Ga15-NFAT-bla HEK 293T cell line
T1 sequence (Q99500 whole entry): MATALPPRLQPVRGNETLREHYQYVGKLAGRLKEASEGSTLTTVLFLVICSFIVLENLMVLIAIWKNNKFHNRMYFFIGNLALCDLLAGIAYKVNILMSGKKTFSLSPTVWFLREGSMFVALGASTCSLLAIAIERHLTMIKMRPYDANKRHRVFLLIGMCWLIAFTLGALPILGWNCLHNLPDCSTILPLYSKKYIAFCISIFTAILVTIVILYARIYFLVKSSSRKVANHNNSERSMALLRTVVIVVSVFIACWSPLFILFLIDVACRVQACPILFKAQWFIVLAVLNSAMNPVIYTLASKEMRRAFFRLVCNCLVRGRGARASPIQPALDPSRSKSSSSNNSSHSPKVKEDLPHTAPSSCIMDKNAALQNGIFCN
Description: GeneBLAzer EDG3-Ga15-NFAT-bla HEK 293T cells (contain the human Endothelial Differentiation G-protein Coupled Receptor 3 (EDG3) and a beta-lactamase reporter gene under control of a NFAT response element and a promiscuous G Protein, Ga15, stably integrated into the GeneBLAzer Ga15-NFAT-bla HEK 293T cell line) were suspended in assay medium (99% DMEM, 1% Dialyzed FBS, 0.1 mM NEAA, 25 mM HEPES (pH 7.3), 100 U/ml penicillin, 100 μg/ml streptomycin) at a density of 312, 500 cells/ml. Add 100 μl/well of the assay medium to the cell-free control wells (column 12) and 100 μl/well of the cell suspension to the test compound wells (row 2-8, column 1-10), the unstimulated control wells (DMSO) (column 11), and stimulated control wells (S1P) (row 1, column 1-10) in a Corning black-well, clear bottom 96-well plate. Cells were incubated at 37° C., 5% CO2 for 24 h. […]
After incubation at 37° C., 5% CO2 for 5 h, 25 μl of 6× substrate mixture (6 μl Solution A (1 mg LiveBLAzer™-FRET B/G Substrate (CCF4-AM) in 912 μl DMSO) plus 60 μl Solution B plus 934 μl Solution C) was added to each well and incubate at room temperature for 2 h in dark. The plate was finally read on EnVision for two emission channels (460 nm and 530 nm). […]

[2] = biological target: T2, human Endothelial Differentiation Gene 1 (EDG1) (Homo sapiens, UniProt P21453); test: S1P1 Tango assay, 384 well format; type: cell-based; conditions: EDG1-bla/U2OS cells
T2 construct: TEV protease cleavage site; Gal4-VP16 transcription factor (printed Ga14-VP16); expressed in transfected cells; host or cells: Tango GPCR-bla U2OS parental cell line (EDG1-bla/U2OS)
T2 sequence (P21453 whole entry, the tested form may be a part): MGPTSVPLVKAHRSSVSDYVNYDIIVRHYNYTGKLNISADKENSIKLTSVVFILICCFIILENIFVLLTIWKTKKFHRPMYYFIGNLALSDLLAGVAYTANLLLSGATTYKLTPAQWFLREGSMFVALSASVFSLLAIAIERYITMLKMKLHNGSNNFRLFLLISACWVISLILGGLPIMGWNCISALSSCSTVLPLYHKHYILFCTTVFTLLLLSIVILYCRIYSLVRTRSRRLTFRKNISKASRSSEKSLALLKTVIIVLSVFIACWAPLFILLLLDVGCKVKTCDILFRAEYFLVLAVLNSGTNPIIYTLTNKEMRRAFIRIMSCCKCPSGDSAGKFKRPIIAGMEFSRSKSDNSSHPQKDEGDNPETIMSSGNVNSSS
Description: S1P1 Tango Assay—384 Well Format
Recombinant EDG1-bla/U2OS cells (contain the human Endothelial Differentiation Gene 1 (EDG1) linked to a TEV protease site and a Ga14-VP16 transcription factor stably integrated into the Tango GPCR-bla U20S parental cell line) were harvested from growth medium and passaged into assay medium (Invitrogen Freestyle Expression Medium). The cells were starved for 24 hours at 37° C., 5% CO2, harvested and resuspended in assay medium at a density of ˜200,000 cells/ml. All test compounds were dissolved in DMSO at a concentration of 10 mM and were prepared in 100% DMSO to provide 10 point dose response curves. Test compounds prepared by Bravo (Velocity11) were added to wells in columns 2-11 and 13-22; DMSO was added to wells in columns 12 and 23 as unstimulated controls and assay medium was added to wells in columns 1 and 24 as cell-free controls. […]
10 μl of 6× substrate mixture (LiveBLAzer™-FRET B/G substrate (CCF4-AM) Cat # K1096 from Invitrogen, Inc.) was added to each well using Bravo and the plates incubated at room temperature for 2 h in the dark. The plate was finally read on EnVision using one excitation channel (409 nm) and two emission channels (460 nm and 530 nm).
The blue/green emission ratio (460 nm/530 nm) was calculated for each well, by dividing the background-subtracted Blue emission values by the background-subtracted Green emission values. […]

[3] = test system: circulating lymphocytes; conditions: animals and man; cited from earlier work
[4] = clinical studies, first 24 hours of treatment; cited from earlier work

SMILES | EC50 [1] [µM] | EC50 [2] [µM] | circulating lymphocytes [3] | bradycardia [4]
CCc1c(-c2cnc(-c3ccc(OC(C)C)c(C#N)c3)s2)ccc2c1CCN(C(CO)CO)C2 [Example 204, 5-(5-{5-ethyl-2-[2-hydroxy-1-(hydroxymethyl)ethyl]-1,2,3,4-tetrahydro-6-isoquinolinyl}-1,3-thiazol-2-yl)-2-[(1-methylethyl)oxy]benzonitrile] | > 10 | < 1 |  | 
CCc1c(-c2nnc(-c3ccc(OC(C)C)c(C#N)c3)s2)ccc2c1CCN(C(CO)CO)C2 [Example 205, 5-(5-{5-ethyl-2-[2-hydroxy-1-(hydroxymethyl)ethyl]-1,2,3,4-tetrahydro-6-isoquinolinyl}-1,3,4-thiadiazol-2-yl)-2-[(1-methylethyl)oxy]benzonitrile] | > 10 | < 0.1 |  | 
CCCCCCCCc1ccc(CCC(N)(CO)CO)cc1 [FTY720] |  |  | reduce circulating lymphocytes in animals and man | bradycardia in the first 24 hours of treatment
